Experimental data taken from publication PMC10115881, “Disrupting the α-synuclein-ESCRT interaction with a peptide inhibitor mitigates neurodegeneration in preclinical models of Parkinson’s disease” (Nature Communications, 2023).

System: endogenous a-syn
Experiment: Endogenous a-syn immunofluorescence in rat cortical neurons
Assay type: cell-based
Source text: Pregnant rats (E17) of the Sprague-Dawley strain were purchased from Envigo. Embryos were surgically removed from the mothers and cortices dissected in Hanks Balanced salt solution (Gibco). The meninges were removed, and cells were dissociated using a papain dissociation system (Worthington) before being resuspended in Neurobasal medium A supplemented with antibiotic-antimycotic solution (Gibco), L-glutamine substitute (GlutaMAX™; Gibco) and factor B27 (Gibco). […]
After fixation, cells were permeabilized with 0.2% Triton-X-100 for 15 min, washed three times with PBS and then incubated with blocking solution (1% BSA, 22.52 mg/mL glycine, 0.1% Tween-20 in PBS or 0.4% saponin, 1% BSA, and 5% goat or donkey serum in PBS) for 1 h. […] Following another three washes with PBS, nuclei were counterstained with DAPI (ThermoFisher) and then coverslips were mounted on slides using Dako fluorescence mounting medium (Agilent) and sealed using clear nail varnish.
Confocal images of immunofluorescent staining were acquired with a Zeiss LSM880 confocal microscope equipped with 405, 488, 555, and 639 nm laser lines. All images were taken within the linear range at constant gain and pinhole settings at optimal resolution settings determined by the software. […]

DEEIERQLKALG [PDpep1.3]
Effect on endogenous a-syn fluorescence: reduced fluorescence intensity
